The source of these data is ChEMBL document CHEMBL5046252, “Integrin-Mediated Targeted Cancer Therapy Using c(RGDyK)-Based Conjugates of Gemcitabine” (J Med Chem, 2022).

The source made the active and inactive calls. The calls are words filed in the database; no cut-off is given here. A value given as a limit tells only on which side of the number the result lay.

By IC50 is commonly meant the concentration that inhibits the measured activity by half.

Data set [1] deals with WM 266-4. Put plainly: Inhibition of cell invasiveness in human WM266-4 cells at 10 uM measured after 4 hrs by DiffQuick staining based light microscopic analysis. The data set is classed as functional.
The nature of data set [2]: Drug metabolism in C57BL/6 naive mouse blood assessed as release of gemcitabine metabolite at 10 mg/kg, ip measured after 8 hrs by LC-MS/MS analysis. Format: ADME, organism-based. To be noted: in vivo.
Data set [3] is described as follows: Stability of the compound in human A549 cells assessed as parent compound concentration at 10 uM measured per 2 x 10^6 cells after 4 hrs by LC-MS/MS analysis. The data set is classed as ADME, cell-based. To be noted: a549, 4 h.
The nature of data set [4]: Stability of the compound in C57BL/6 naive mouse blood at 10 mg/kg, ip measured for 1 hr by LC-MS/MS analysis. Format: ADME, organism-based. To be noted: in vivo.
Data set [5] is described as follows: Drug uptake in C57BL/6 naive mouse blood at 10 mg/kg, ip measured after 0.5 hrs by LC-MS/MS analysis. The data set is classed as ADME, organism-based. To be noted: C57BL/6, mouse, whole blood, read-out: Drug uptake.
In data set [6] the test system is WM 266-4. Nature of the data set: Induction of apoptosis in human WM266-4 cells assessed as necrotic cells at 1 uM measured after 72 hrs by Annexin V-FITC and PI staining based flow cytometry analysis (reference value: […]). The data set is classed as functional.
A short description of data set [7]: Drug uptake in C57BL/6 naive mouse blood at 10 mg/kg, ip measured after 8 hrs by LC-MS/MS analysis. The data set is classed as ADME, organism-based. To be noted: C57BL/6, mouse, whole blood, read-out: Drug uptake.
The nature of data set [8]: Chemostability of the compound in acetate buffer at pH 5.2 measured upto 48 hrs by LC-MS analysis. The data set is classed as physicochemical. Conditions: pH 5.2, 48 h.
Data set [9] is described as follows: Drug metabolism in C57BL/6 naive mouse blood assessed as release of gemcitabine metabolite at 10 mg/kg, ip measured after 0.5 hrs by LC-MS/MS analysis. Format: ADME, organism-based. Conditions: in vivo.
Data set [10] can be described thus: Drug uptake in C57BL/6 naive mouse blood at 10 mg/kg, ip measured after 1 hr by LC-MS/MS analysis. Format: ADME, organism-based. Conditions: C57BL/6, mouse, whole blood, read-out: Drug uptake.
A short description of data set [11]: Drug uptake in C57BL/6 naive mouse blood at 10 mg/kg, ip measured after 2 hrs by LC-MS/MS analysis. Format: ADME, organism-based. To be noted: C57BL/6, mouse, whole blood, read-out: Drug uptake.
In data set [12] the test system is WM 266-4. Put plainly: Induction of apoptosis in human WM266-4 cells assessed as early apoptotic cells at 1 uM measured after 72 hrs by Annexin V-FITC and PI staining based flow cytometry analysis (reference value: 0.2%). The data set is classed as functional. On the technique in general: Flow cytometry measures light scatter and fluorescence of single cells or particles in a stream.

Data set [13] in a line: Drug metabolism in C57BL/6 naive mouse blood assessed as release of gemcitabine metabolite at 10 mg/kg, ip measured after 0.25 hrs by LC-MS/MS analysis. Format: ADME, organism-based. To be noted: in vivo.
Data set [14] in a line: Stability of the compound in DMEM-F12 medium measured for 70 hrs by LC-MS/MS analysis. The data set is classed as physicochemical.
A short description of data set [15]: Drug uptake in C57BL/6 naive mouse blood at 10 mg/kg, ip measured after 4 hrs by LC-MS/MS analysis. Format: ADME, organism-based. To be noted: C57BL/6, mouse, whole blood, read-out: Drug uptake.
Data set [16] in a line: Drug metabolism in C57BL/6 naive mouse blood assessed as release of gemcitabine metabolite at 10 mg/kg, ip measured after 1 hr by LC-MS/MS analysis. The data set is classed as ADME, organism-based. To be noted: in vivo.
Data set [17] in a line: Drug metabolism in human A549 cells assessed as 2',2'-difluorodeoxyuridine metabolite concentration at 10 uM measured per 2X10^5 cells after 24 hrs by LC-MS/MS analysis. Format: ADME, cell-based. To be noted: a549, 24 h.
A short description of data set [18]: Drug uptake in C57BL/6 naive mouse blood at 10 mg/kg, ip measured after 6 hrs by LC-MS/MS analysis. The data set is classed as ADME, organism-based. To be noted: C57BL/6, mouse, whole blood, read-out: Drug uptake.
Data set [19] in a line: Drug metabolism in human A549 cells assessed as gemcitabine metabolite formation at 10 uM measured per 2 x 10^5 cells after 24 hrs by LC-MS/MS analysis. The data set is classed as ADME, cell-based. To be noted: a549, 24 h.
Data set [20] can be described thus: Drug uptake in C57BL/6 naive mouse blood at 10 mg/kg, ip measured after 24 hrs by LC-MS/MS analysis. To be noted: C57BL/6, mouse, whole blood, read-out: Drug uptake. Format: ADME, organism-based.
The nature of data set [21]: Drug metabolism in C57BL/6 naive mouse blood assessed as release of gemcitabine metabolite at 10 mg/kg, ip measured after 24 hrs by LC-MS/MS analysis. The data set is classed as ADME, organism-based. Conditions: in vivo.
The nature of data set [22]: Chemostability of the compound in phosphate buffer buffer at pH 7.4 measured upto 48 hrs by LC-MS analysis. Format: physicochemical. Conditions: pH 7.4, 48 h.
Data set [23] in a line: Drug metabolism in C57BL/6 naive mouse blood assessed as release of gemcitabine metabolite at 10 mg/kg, ip measured after 6 hrs by LC-MS/MS analysis. Format: ADME, organism-based. To be noted: in vivo.
Data set [24] has as its system WM 266-4. Nature of the data set: Induction of apoptosis in human WM266-4 cells assessed as viable cells at 1 uM measured after 72 hrs by Annexin V-FITC and PI staining based flow cytometry analysis (reference value: 98.2%). The data set is classed as functional. Conditions: read-out: Activity.
The nature of data set [25]: Drug metabolism in C57BL/6 naive mouse blood assessed as release of gemcitabine metabolite at 10 mg/kg, ip measured after 2 hrs by LC-MS/MS analysis. Conditions: in vivo. The data set is classed as ADME, organism-based.
Data set [26] can be described thus: Drug uptake in human A549 cells at 20 uM in presence of alphavbeta3 integrin […], c(RGDyK) incubated for 2 hrs by LC-MS analysis. Format: cell-based. To be noted: a549, 2 h.
Data set [27] in a line: Drug uptake in C57BL/6 naive mouse blood at 10 mg/kg, ip measured after 0.25 hrs by LC-MS/MS analysis. Format: ADME, organism-based. To be noted: C57BL/6, mouse, whole blood, read-out: Drug uptake.
Data set [28] can be described thus: Drug uptake in human A549 cells at 20 uM in presence of alphavbeta3 integrin […]-cilengitide incubated for 2 hrs by LC-MS analysis. The data set is classed as cell-based. To be noted: a549, 2 h.
Data set [29] deals with WM 266-4. Nature of the data set: Inhibition of cell growth in human WM266-4 cells measured after 24 hrs. The data set is classed as functional, cell-based. To be noted: WM 266-4, 24 h.
Data set [30] has as its system WM 266-4. Nature of the data set: Inhibition of clonogenicity in human WM266-4 cells assessed as proportion of cell colonies at 1 uM measured after 72 hrs relative to control. Further details: scale not given: the % may be the effect or the level left. Format: functional.
Data set [31] in a line: Drug metabolism in C57BL/6 naive mouse blood assessed as release of gemcitabine metabolite at 10 mg/kg, ip measured after 4 hrs by LC-MS/MS analysis. The data set is classed as ADME, organism-based. To be noted: in vivo.
Data set [32] is described as follows: Stability of the compound in human plasma at 1 ug/ml measured for 4 hrs by LC-MS/MS analysis. Format: ADME, cell-free. Conditions: at 1 µg/mL.
Data set [33] concerns WM 266-4. Nature of the data set: Induction of apoptosis in human WM266-4 cells assessed as late apoptotic cells at 1 uM measured after 72 hrs by Annexin V-FITC and PI staining based flow cytometry analysis (reference value: 0.5%). The data set is classed as functional.
In data set [34] the test system is A549. Put plainly: Antiproliferative activity against human A549 cells assessed as inhibition of cell growth measured after 72 hrs by MTT assay. Format: functional, cell-based. Conditions: A549, 72 h. A general note: Tetrazolium dyes change colour on reduction, which living cells bring about.
Data set [35] can be described thus: Chemostability of the compound in phosphate buffer assessed as compound hydrolysis at pH 7.4 measured after 7 hrs by LC-MS analysis. Format: physicochemical. To be noted: pH 7.4, 7 h.
The nature of data set [36]: Drug metabolism in human plasma assessed as release of 2',2'-difluorodeoxyuridine metabolite at 1 ug/ml by LC-MS/MS analysis. Format: ADME, cell-free. To be noted: dose 1 µg/ml.
The nature of data set [37]: Drug metabolism in human plasma assessed as gemcitabine release at 1 ug/ml by LC-MS/MS analysis. Format: ADME, cell-free. Conditions: dose 1 µg/ml.
Data set [38] in a line: Chemostability of the compound in phosphate buffer assessed as residual parent compound concentration at pH 7.4 measured after 24 hrs by LC-MS analysis. Format: physicochemical. To be noted: read-out: Activity.

In the case of `N=C(N)NCCC[C@@H]1NC(=O)[C@H](CCCCN)NC(=O)[C@@H](Cc2ccc(O)cc2)NC(=O)[C@H](CC(=O)O)NC(=O)CNC1=O`, the inhibition entry in data set [1] was “Active”.
Turning to `N=C(N)NCCC[C@@H]1NC(=O)[C@H](CCCCNC(=O)OC[C@H]2O[C@@H](n3ccc(N)nc3=O)C(F)(F)[C@@H]2O)NC(=O)[C@@H](Cc2ccc(O)cc2)NC(=O)[C@H](CC(=O)O)NC(=O)CNC1=O`, the Drug metabolism in data set [2] was 40 nM; in data set [9], 33 nM; in data set [13] it was 748 nM; in data set [16], 46 nM; in data set [17], 4 ng; in [19] it was below 0.05 ng. The Drug metabolism in data set [21] was determined as 3 nM; in [23] it was 11 nM; in [25] it was 6 nM; in data set [31], 7 nM. Besides, the Drug uptake in data set [3] is 5 ng; in [26], “Not Active”; in [28] it was “Not Active”. In addition, the inhibition entry in data set [1] was “Active”. For the same molecule, the Stability entry in [4], in [8], in data set [14], in data set [22] and in [32] was “Stable” each time. In addition, the concentration at 0.5 h in data set [5] was 8.47 µM. Further, the Activity turned out to be 21.7% in data set [6], 1.3% in data set [12], 8.3% in data set [30] and 4.8% in data set [33]. Besides, the concentration at 8 h in data set [7] came to 0.011 µM. In addition, the concentration at 1 h in data set [10] was found to be 3.32 µM. The concentration at 2 h in data set [11] stood at 0.547 µM. In addition, the concentration at 4 h in [15] amounted to 0.038 µM. Also, the concentration at 6 h in data set [18] was 0.168 µM. Moreover, the concentration at 24 h in data set [20] turned out to be 0.014 µM. In addition, the viability at 1 µM in [24] worked out at 72.3%. For the same molecule, the concentration at 0.25 h in data set [27] worked out at 6.66 µM. For the same molecule, the values for the IC50 in data set [29] and in data set [34] were 57.6 µM and 0.678 µM, respectively.
For the molecule `Nc1ccn([C@@H]2O[C@H](CO)[C@@H](O)C2(F)F)c(=O)n1` [GEMCITABINE], the Activity in data set [6] is recorded as 12.4%; in data set [12], 4.1%; in data set [30], 46.6%; in data set [33] it was 5.1%. For the same molecule, the viability at 1 µM in [24] came to 78.3%. For the same molecule, the IC50 came to 17.8 µM in data set [29] and 0.0188 µM in data set [34].
Turning to `N=C(N)NCCC[C@@H]1NC(=O)[C@H](CCCCNC(=O)OCCSSCCOC(=O)OC[C@H]2O[C@@H](n3ccc(N)nc3=O)C(F)(F)[C@@H]2O)NC(=O)[C@@H](Cc2ccc(O)cc2)NC(=O)[C@H](CC(=O)O)NC(=O)CNC1=O`, the Stability result is listed as “Unstable” in [35] and “Stable” in data set [8]. Further, the inhibition entry in data set [1] was “Active”. For the same molecule, the Drug metabolism result in data set [36] and in data set [37] was “Metabolite_Detected” in each case. In addition, the Activity stood at 31.1% in data set [6], 0.3% in [12], 4.9% in data set [30] and 2.2% in [33]. Also, in data set [24], the viability at 1 µM was 66.4%. For the same molecule, the IC50 in data set [29] is above 100 µM; in data set [34], 0.0306 µM. For the same molecule, in [38], the remaining at 24 h came out at 85%.
